The source of these data is patent US20220332733A1, “MATERIAL FOR WAVELENGTH CONVERSION, WAVELENGTH CONVERSION MEMBER, LIGHT EMITTING DEVICE, AND COMPOUND USED FOR SAME” (FUJIFILM Corporation, priority 2021, published 2022).

Holding throughout (type): physicochemical
Series [1] is described as follows: Relative fluorescence intensity of fluorescent latex dispersion. Conditions: for Relative Fluorescence Intensity: relative to 6 μmol/g of the same compound, at emission maximum wavelength, dispersion diluted 200 times; for fluorescence intensity of fluorescent latex as the compound amount is increased (in words): compared with comparative compound (1), summary of Table 1. How it is done: As latex particles, particles having an average particle diameter of 150 nm, which were prepared by polymerizing a mixture of styrene and an acrylic acid in a mass ratio of 9:1 in a state of being dispersed in water, were used. The average particle diameter was measured using a dynamic light scattering method using Zetasizer Nano ZS (trade name, manufactured by Malvern Panalytical Ltd.) based on the above-described measurement conditions. 5 mL of THF was added dropwise to 25 mL of the latex dispersion with a solid content of 2% (solid content mass: 500 mg) prepared as above, and the mixture was stirred for 10 minutes. 2.5 mL of a THF solution of a test compound (any one of the compound (1-1), the compound (1-2), the compound (2-1), or the comparative compound (1)) was added dropwise thereto for 15 minutes. In Table 1, μmol/g in the column of compound amount indicates the number of moles of the compound used with respect to 1 g of the solid content of the latex. Completion of the dropwise addition of the test compound was followed by stirring for 30 minutes and concentration under reduced pressure to remove THF. After that, the particles were precipitated by centrifugation, followed by addition of ultrapure water and redispersion to manufacture fluorescent latex dispersions Nos. 101 to 104, 201, 202, 301 to 303, and c11 to c14 with a concentration of solid contents of 2 mass %.
The relative fluorescence intensity of the fluorescent latex dispersion with a concentration of solid contents of 2 mass % manufactured as above at an emission maximum wavelength was evaluated. The evaluation was performed using a latex dispersion diluted 200 times with ultrapure water with the use of a fluorescence spectrophotometer RF-5300PC (trade name) manufactured by Shimadzu Corporation for measurement of the emission maximum wavelength and the fluorescence intensity at the emission maximum wavelength.
In the respective test compounds, based on the fluorescence intensity at the emission maximum wavelength with a compound amount of 6 μmol/g, fluorescence intensities at the emission maximum wavelength with other compound amounts were evaluated as the relative fluorescence intensity.

Series [2] in a line: Absorption characteristics of compound (molar absorption coefficient, half-width) in chloroform. Conditions: for Half-Width: at maximal absorption wavelength. How it is done: Using a spectrophotometer UV-3600 (trade name) manufactured by Shimadzu Corporation, a molar absorption coefficient ϵ (1/mol·cm) and a half-width at a maximal absorption wavelength were measured and evaluated based on the following evaluation ranks. The half-width means a width (distance) between two wavelengths showing half the intensity of the maximal value at the maximum absorption wavelength. In the table, the evaluation of the molar absorption coefficient ϵ is described in the column of ϵ. As a measurement solvent, chloroform was used.
In this test, a molar absorption coefficient at evaluation rank “B” or higher (S to B) is regarded as acceptable, and due to the fact that the half-width is preferably narrow from the viewpoint of an improvement of color reproducibility, a half-width at evaluation rank “A” or higher (S or A) is regarded as acceptable.

A short description of series [3]: Solubility of compound in solvents or raw material monomers, visual. Conditions: summary of Table 3. As for the experimental part:
The solubility in the following solvents or media A to G as raw material monomers of a resin was evaluated. The evaluation method is as follows: 0.1 ml of a solvent was added to […] of each compound to dissolve the compound, and the solubility was visually determined based on the following evaluation ranks. In this test, evaluation rank “B” or higher is an acceptable level.

[4] abbreviates: compound amount 24 μmol/g latex solids.
The mark [5] stands for this setting: compound amount 48 μmol/g latex solids.
Setting [6] is: compound amount 100 μmol/g latex solids.

`CCOC(=O)C1=C(C)C2=C(c3cc(-c4ccc(C(C)(C)C)cc4)cc(-c4ccc(C(C)(C)C)cc4)c3)c3c(C)c(C(=O)OCC)c(C)n3[B-](F)(F)[N+]2=C1C` [Comparative Compound (1), reference compound]: the “Relative Fluorescence Intensity” value in series [1] (setting [4]) turned out to be 3 times as large as No. c11; in series [1] (setting [5]), 5 times as large as No. c11; in series [1] (setting [6]) it was 6 times as large as No. c11. Further, the “ε (molar absorption coefficient at maximal absorption wavelength)” value in series [2] is “D (less than 100,000)”. In addition, the Half-Width result in series [2] is listed as “S (equal to or less than 30 nm)”. Besides, in series [3], the “solubility in the solvent or raw material monomer (in words)” value (shortened to “solubility”) was “poor solubility”.

On to `CC1=C(C(=O)OC2C(C(C)(C)C)CC(C)CC2C(C)(C)C)C(N)=[N+]2C1=C(C)c1c(C)c(C(=O)OC3C(C(C)(C)C)CC(C)CC3C(C)(C)C)c(N)n1[B-]2(F)F` (centres unmarked) [Compound (1-1)], for which the “fluorescence intensity of fluorescent latex as the compound amount is increased (in words)” value in series [1] is on record as “higher fluorescence intensity”. Further, the figures for the “Relative Fluorescence Intensity” value in series [1] (setting [4]), in series [1] (setting [5]) and in series [1] (setting [6]) were 4 times as large as No. 101, 7 times as large as No. 101 and 12 times as large as No. 101, respectively. In series [2], the “ε (molar absorption coefficient at maximal absorption wavelength)” value is given as “S (equal to or greater than 130,000)”. In series [2], the Half-Width entry is on record as “S (equal to or less than 30 nm)”. Moreover, in series [3], the “solubility” value is listed as “excellent solubility”.

On to `CC1CC(C(C)(C)C)C(OC(=O)C2=C(c3ccccc3)C3=Cc4c(-c5ccccc5)c(C(=O)OC5C(C(C)(C)C)CC(C)CC5C(C)(C)C)c(N)n4[B-](F)(F)[N+]3=C2N)C(C(C)(C)C)C1` (centres unmarked) [Compound (1-2)], for which, in series [1], the “fluorescence intensity of fluorescent latex as the compound amount is increased (in words)” value is recorded as “higher fluorescence intensity”. In addition, in series [1] (setting [6]), the “Relative Fluorescence Intensity” value was found to be 10 times as large as No. 201. Moreover, in series [2], the “ε (molar absorption coefficient at maximal absorption wavelength)” value is given as “S (equal to or greater than 130,000)”; the Half-Width entry was “A (equal to or greater than 31 nm and equal to or less than 35 nm)”.

Turning to `CC1=C(C(=O)OC2C(C(C)(C)C)CC(C)CC2C(C)(C)C)C(N)=[N+]2C1=C(C)c1c(C)c(C(=O)OC3C(C(C)(C)C)CC(C)CC3C(C)(C)C)c(N)n1[B-]2(F)C(F)(F)F` (centres unmarked) [Compound (2-1)], in series [1], the “fluorescence intensity of fluorescent latex as the compound amount is increased (in words)” value is given as “higher fluorescence intensity”. In series [1] (setting [5]), the “Relative Fluorescence Intensity” value was 7 times as large as No. 301. Besides, the “Relative Fluorescence Intensity” value in series [1] (setting [6]) is listed as 12 times as large as No. 301. For the same compound, in series [2], the “ε (molar absorption coefficient at maximal absorption wavelength)” value is “S (equal to or greater than 130,000)” and the Half-Width result is “S (equal to or less than 30 nm)”. The “solubility” value in series [3] is recorded as “excellent solubility”.
